Earlier results, collected in PubChem BioAssay AID1259409 (Chemical Carcinogenesis Research Information System (CCRIS), 2018).

Test system: rodent chemically induced tumor inhibition, incidence and multiplicity
Experiment: CCRIS tumor inhibitor studies
Conditions: Route [Inhibitor]: ORAL, Promoter: NONE USED

## CC1=C(/C=C/C(C)=C/C=C/C(C)=C/C(=O)Nc2ccc(O)cc2)C(C)(C)CCC1
Carcinogen: N-NITROSOBIS(2-OXYPROPYL)AMINE, 60599-38-4, Dose [Inhibitor]: 0.05, 0.1 OR 0.2 MILLIMOLAR/KG DIET FOR 32 WK STARTING 1 WK AFTER THE CARCINOGEN DOSE (STUDY DURATION: 33 WK), Species: HAMSTER, Strain/Sex: SYRIAN/MALE, Target Tissue: Type of Lesion: LUNG: ADENOMA, Dose [Carcinogen]: 40 MG/KG ONCE
  tumour outcome (control, treated, inhibition, significance): 1/12 (8%), 2/21 (10%), -25%, not significant
Carcinogen: N-NITROSOBIS(2-OXYPROPYL)AMINE, 60599-38-4, Dose [Inhibitor]: 0.05, 0.1 OR 0.2 MILLIMOLAR/KG DIET FOR 32 WK STARTING 1 WK AFTER THE CARCINOGEN DOSE (STUDY DURATION: 33 WK), Species: HAMSTER, Strain/Sex: SYRIAN/MALE, Target Tissue: Type of Lesion: PANCREAS: ADENOMA, Dose [Carcinogen]: 40 MG/KG ONCE
  tumour outcome (control, treated, inhibition, significance): 12/12 (100%), 21/21 (100%), 0%, not significant
Carcinogen: N-NITROSOBIS(2-OXYPROPYL)AMINE, 60599-38-4, Dose [Inhibitor]: 0.05, 0.1 OR 0.2 MILLIMOLAR/KG DIET FOR 32 WK STARTING 1 WK AFTER THE CARCINOGEN DOSE (STUDY DURATION: 33 WK), Species: HAMSTER, Strain/Sex: SYRIAN/MALE, Target Tissue: Type of Lesion: PANCREAS: CARCINOMA, Dose [Carcinogen]: 40 MG/KG ONCE
  tumour outcome (control, treated, inhibition, significance): 6/12 (50%), 13/21 (62%), -24%, not significant
Carcinogen: NONE USED, Dose [Inhibitor]: 1 MILLIMOLAR IN DIET DAILY FOR 39 WK STARTING AT 2 MO OF AGE THROUGH THE END OF THE STUDY (STUDY DURATION: 39 WK), Species: MOUSE, Strain/Sex: C3H/FEMALE, Target Tissue: Type of Lesion: MAMMARY GLAND: ADENOCARCINOMA
  tumour outcome (control, treated, inhibition, significance): 83/98 (85%), 71/100 (71%), 16%, not significant
Carcinogen: NONE USED, Dose [Inhibitor]: 1 MILLIMOLAR IN DIET FOR 14 WK STARTING AT 4-6 MO OF AGE THROUGH THE END OF THE STUDY (STUDY DURATION: 14 WK), Species: MOUSE, Strain/Sex: C3H/FEMALE, Target Tissue: Type of Lesion: MAMMARY GLAND: ADENOCARCINOMA
  tumour outcome (control, treated, inhibition, significance): 54/78 (69%), 62/78 (80%), -16%, not significant
Carcinogen: NONE USED, Dose [Inhibitor]: 1 MILLIMOLAR IN DIET FOR 39 WK STARTING AT 2 MO OF AGE THROUGH THE END OF THE STUDY (STUDY DURATION: 39 WK), Species: MOUSE, Strain/Sex: C3H/FEMALE, Target Tissue: Type of Lesion: MAMMARY GLAND: ADENOCARCINOMA
  tumour outcome (control, treated, inhibition, significance): 83/98 (85%), 71/100 (71%), 16%, not significant
Carcinogen: NONE USED, Dose [Inhibitor]: 1.0 MM/KG IN DIET DAILY FOR 14 WK STARTING AT 4-6 MO OF AGE THROUGH THE END OF THE STUDY (STUDY DURATION: 14 WK), Species: MOUSE, Strain/Sex: C3H/FEMALE, Target Tissue: Type of Lesion: MAMMARY GLAND: ADENOCARCINOMA
  tumour outcome (control, treated, inhibition, significance): 54/78 (69%), 62/78 (80%), -16%, not significant
Carcinogen: NONE USED, Dose [Inhibitor]: 783 MG/KG DIET DAILY FOR 54 WK (STUDY DURATION: 54 WK), Species: RAT, Strain/Sex: ACI/MALE, Target Tissue: Type of Lesion: ADRENAL GLAND: TUMOR
  tumour outcome (control, treated, inhibition, significance): 15/43 (35%), 18/43 (42%), -20%, not significant
Carcinogen: NONE USED, Dose [Inhibitor]: 783 MG/KG DIET DAILY FOR 54 WK (STUDY DURATION: 54 WK), Species: RAT, Strain/Sex: ACI/MALE, Target Tissue: Type of Lesion: PANCREAS: ADENOMA
  tumour outcome (control, treated, inhibition, significance): 1/40 (3%), 5/44 (11%), -267%, not significant
Carcinogen: NONE USED, Dose [Inhibitor]: 783 MG/KG DIET DAILY FOR 54 WK (STUDY DURATION: 54 WK), Species: RAT, Strain/Sex: ACI/MALE, Target Tissue: Type of Lesion: PITUITARY GLAND: ADENOMA OR CARCINOMA
  tumour outcome (control, treated, inhibition, significance): 20/39 (51%), 19/42 (45%), 12%, not significant
Carcinogen: NONE USED, Dose [Inhibitor]: 783 MG/KG DIET DAILY FOR 54 WK (STUDY DURATION: 54 WK), Species: RAT, Strain/Sex: ACI/MALE, Target Tissue: Type of Lesion: PROSTATE GLAND: ADENOMA OR CARCINOMA
  tumour outcome (control, treated, inhibition, significance): 19/44 (43%), 11/40 (28%), 35%, not significant
Carcinogen: NONE USED, Dose [Inhibitor]: 783 MG/KG DIET DAILY FOR 54 WK (STUDY DURATION: 54 WK), Species: RAT, Strain/Sex: ACI/MALE, Target Tissue: Type of Lesion: SKIN: TUMORS
  tumour outcome (control, treated, inhibition, significance): 12/45 (27%), 3/45 (7%), 74%, p<0.025
Carcinogen: NONE USED, Dose [Inhibitor]: 783 MG/KG DIET DAILY FOR 54 WK (STUDY DURATION: 54 WK), Species: RAT, Strain/Sex: ACI/MALE, Target Tissue: Type of Lesion: TESTES: INTERSTITIAL CELL TUMOR
  tumour outcome (control, treated, inhibition, significance): 21/45 (47%), 24/44 (55%), -17%, not significant
